Source: ChEMBL document CHEMBL6153079, “Discovery of noncovalent diaminopyrimidine-based Inhibitors for glioblastoma via a dual FAK/DNA targeting strategy” (Eur J Med Chem, 2025)
Activity calls are given as the source filed them. The rule behind the calls is not given here.

Experiments:
U-87 MG [1] = test: Induction of cell cycle arrest in human U-87 MG cells assessed as accumulation of cells at […] at 0.2 uM by propidium Iodide staining based flow cytometry analysis (reference value: 1.67%); format: functional, U-87MG ATCC
U-87 MG [2] = test: Induction of cell cycle arrest in human U-87 MG cells assessed as accumulation of cells at G0/G1 phase at 2 uM by propidium Iodide staining based flow cytometry analysis (reference value: 80.68%); format: functional, U-87MG ATCC
U-87 MG [3] = test: Induction of apoptosis in human U-87 MG cells assessed as late apoptotic cells at 0.02 uM measured upto 24 hrs by Annexin V-FITC/PI staining based flow cytometry analysis (reference value: 0.54%); format: functional, U-87MG ATCC
U-87 MG [4] = test: Induction of cell cycle arrest in human U-87 MG cells assessed as accumulation of cells at G2M phase at 0.2 uM by propidium Iodide staining based flow cytometry analysis (reference value: 9.73%); format: functional, U-87MG ATCC
U-87 MG [5] = test: Induction of apoptosis in human U-87 MG cells assessed as viable cells at 2 uM measured upto 24 hrs by Annexin V-FITC/PI staining based flow cytometry analysis (reference value: 98.4%); format: functional, U-87MG ATCC; settings: read-out: Activity
[6] = Toxicity in BALB/c mouse implanted with human U-87 MG cells assessed as liver damage at 5 mg/kg, ip administered once daily for 15 days by H and E staining based analysis; format: organism-based; settings: in vivo, 360 h, time 15 day
[7] = Toxicity in BALB/c mouse implanted with human U-87 MG cells assessed as tolerability at 5 to 25 mg/kg, ip administered once daily for 15 days by H and E staining based analysis; format: organism-based; settings: in vivo, 360 h, dose 5-25 mg/kg, time 15 day
U-87 MG [8] = test: Induction of apoptosis in human U-87 MG cells assessed as early apoptotic cells at 0.02 uM measured upto 24 hrs by Annexin V-FITC/PI staining based flow cytometry analysis (reference value: 0.45%); format: functional, U-87MG ATCC
[9] = Effective permeability of compound at pH 7.4 incubated for 16 hrs by LCMS analysis; format: ADME; settings: pH 7.4, 16 h
U-87 MG [10] = test: Antiproliferative activity against human U-87 MG assessed as cell viability incubated for 48 hrs by MTT assay; format: functional, cell-based, U-87MG ATCC
[11] = Toxicity in BALB/c mouse implanted with human U-87 MG cells assessed as tubular epithelial degeneration in renal cortex at 5 mg/kg, ip administered once daily for 15 days by H and E staining based analysis; format: organism-based; settings: in vivo, 360 h, time 15 day
U-87 MG [12] = test: Antiproliferative activity against human U-87 MG assessed as inhibition of cell growth at 0.025 to 0.1 uM; format: functional, U-87MG ATCC; settings: dose 0.025-0.1 µM
U-87 MG [13] = test: Induction of apoptosis in human U-87 MG cells assessed as necrotic cells at 2 uM measured upto 24 hrs by Annexin V-FITC/PI staining based flow cytometry analysis (reference value: 0.62%); format: functional, U-87MG ATCC
Focal adhesion kinase 1 [14] = target: T1, Focal adhesion kinase 1 (Homo sapiens, UniProt Q05397); test: Inhibition of FAK (unknown origin) preincubated for 10 mins followed by ATP and substrate addition and measured after 50 mins by HTRF analysis
Target sequence in this assay (Q05397 whole entry): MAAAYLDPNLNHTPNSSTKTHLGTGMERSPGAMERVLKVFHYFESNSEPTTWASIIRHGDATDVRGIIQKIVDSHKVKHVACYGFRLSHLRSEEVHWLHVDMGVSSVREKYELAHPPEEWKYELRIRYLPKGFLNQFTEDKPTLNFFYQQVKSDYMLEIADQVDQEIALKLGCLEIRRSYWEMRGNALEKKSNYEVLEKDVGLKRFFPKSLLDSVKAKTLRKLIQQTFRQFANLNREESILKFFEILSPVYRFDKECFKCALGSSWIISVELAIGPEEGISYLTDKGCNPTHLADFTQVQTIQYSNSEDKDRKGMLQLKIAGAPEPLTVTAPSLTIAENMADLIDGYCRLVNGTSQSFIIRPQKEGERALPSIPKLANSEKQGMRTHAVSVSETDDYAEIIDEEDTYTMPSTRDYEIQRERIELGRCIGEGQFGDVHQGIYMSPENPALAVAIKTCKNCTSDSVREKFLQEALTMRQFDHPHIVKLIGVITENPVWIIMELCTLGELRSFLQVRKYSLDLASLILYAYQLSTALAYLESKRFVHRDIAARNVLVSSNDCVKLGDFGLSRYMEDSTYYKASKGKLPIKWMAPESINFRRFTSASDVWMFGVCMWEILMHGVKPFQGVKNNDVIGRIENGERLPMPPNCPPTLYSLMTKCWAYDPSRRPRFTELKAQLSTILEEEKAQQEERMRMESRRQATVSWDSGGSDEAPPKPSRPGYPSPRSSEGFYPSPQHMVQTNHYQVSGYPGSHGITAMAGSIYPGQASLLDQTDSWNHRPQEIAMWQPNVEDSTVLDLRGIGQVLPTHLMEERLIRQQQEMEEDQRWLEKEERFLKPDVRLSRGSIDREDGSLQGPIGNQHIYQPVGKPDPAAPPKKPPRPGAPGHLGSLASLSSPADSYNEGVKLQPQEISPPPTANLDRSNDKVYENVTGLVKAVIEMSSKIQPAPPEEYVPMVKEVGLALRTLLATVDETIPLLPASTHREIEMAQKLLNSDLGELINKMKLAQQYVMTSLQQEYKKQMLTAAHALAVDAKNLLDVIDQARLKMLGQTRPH

[15] = Toxicity in BALB/c mouse implanted with human U-87 MG cells assessed as body weight loss at 5 to 25 mg/kg, ip administered once daily for 15 days by H and E staining based analysis; format: organism-based; settings: in vivo, 360 h, dose 5-25 mg/kg, time 15 day
U-87 MG [16] = test: Induction of apoptosis in human U-87 MG cells assessed as early apoptotic cells at 2 uM measured upto 24 hrs by Annexin V-FITC/PI staining based flow cytometry analysis (reference value: 0.45%); format: functional, U-87MG ATCC
[17] = Selectivity ratio of IC50 for cytotoxicity against human LO2 assessed as cell viability to IC50 for antiproliferative activity against human U-251 assessed as cell viability; format: toxicity; settings: LO2 cells versus U-251 cells, read-out: Ratio IC50
U-87 MG [18] = test: Induction of cell cycle arrest in human U-87 MG cells assessed as accumulation of cells at G2M phase at 0.01 uM by propidium Iodide staining based flow cytometry analysis (reference value: 9.73%); format: functional, U-87MG ATCC
U-87 MG [19] = test: Antiproliferative activity against human U-87 MG assessed as inhibition of cell growth at 0.005 uM by clonogenic assay relative to control; format: functional, U-87MG ATCC
Focal adhesion kinase 1 [20] = target: T1, Focal adhesion kinase 1; test: Inhibition of FAK (unknown origin) at 10 nM relative to control
Target sequence in this assay (Q05397 2-1052 limits assumed): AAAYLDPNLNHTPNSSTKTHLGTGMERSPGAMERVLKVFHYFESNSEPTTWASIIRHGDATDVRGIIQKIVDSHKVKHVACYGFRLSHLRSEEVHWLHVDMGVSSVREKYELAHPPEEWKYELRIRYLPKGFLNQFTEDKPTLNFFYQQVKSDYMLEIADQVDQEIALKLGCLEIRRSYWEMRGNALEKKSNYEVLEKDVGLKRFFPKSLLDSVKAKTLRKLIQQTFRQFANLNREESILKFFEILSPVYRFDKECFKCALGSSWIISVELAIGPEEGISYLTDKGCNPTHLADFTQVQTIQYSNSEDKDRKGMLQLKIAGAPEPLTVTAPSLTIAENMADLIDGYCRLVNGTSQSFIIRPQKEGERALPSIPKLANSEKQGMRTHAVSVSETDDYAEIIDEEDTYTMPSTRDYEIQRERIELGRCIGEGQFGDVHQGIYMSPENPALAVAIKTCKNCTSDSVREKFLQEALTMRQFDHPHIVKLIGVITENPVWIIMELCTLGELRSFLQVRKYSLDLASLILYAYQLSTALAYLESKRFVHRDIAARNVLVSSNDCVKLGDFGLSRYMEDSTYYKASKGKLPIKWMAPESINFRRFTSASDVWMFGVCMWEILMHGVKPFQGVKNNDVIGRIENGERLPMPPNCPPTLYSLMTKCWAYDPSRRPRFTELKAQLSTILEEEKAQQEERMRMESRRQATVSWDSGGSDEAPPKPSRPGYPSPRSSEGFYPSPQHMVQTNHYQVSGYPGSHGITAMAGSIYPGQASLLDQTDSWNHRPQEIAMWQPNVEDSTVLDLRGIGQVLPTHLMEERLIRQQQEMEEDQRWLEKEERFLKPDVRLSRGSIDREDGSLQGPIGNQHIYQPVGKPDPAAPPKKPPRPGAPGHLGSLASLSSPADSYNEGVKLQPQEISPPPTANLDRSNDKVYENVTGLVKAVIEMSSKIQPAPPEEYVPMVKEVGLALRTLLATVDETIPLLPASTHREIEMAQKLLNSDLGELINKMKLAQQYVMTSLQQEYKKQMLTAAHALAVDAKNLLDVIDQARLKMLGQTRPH

U-87 MG [21] = test: Antitumor activity against human U-87 MG cells xenografted in BALB/c mouse assessed as inhibition of tumor growth at 25 mg/kg, ip administered once daily for 15 days; format: functional, U-87MG ATCC; settings: 360 h, time 15 day, read-out: TGI
[22] = Distribution coefficient, logD of compound in n-Octanol/water at pH 7.4; format: physicochemical
U-87 MG [23] = test: Induction of cell cycle arrest in human U-87 MG cells assessed as accumulation of cells at S phase at 0.02 uM by propidium Iodide staining based flow cytometry analysis (reference value: 9.59%); format: functional, U-87MG ATCC
U-87 MG [24] = test: Induction of DNA damage in human U-87 MG cells assessed as comet tail moment at 0.1 to 2 uM incubated for 2.5 to 3 hrs by comet assay; format: functional, U-87MG ATCC; settings: time 2.5-3 hrs
U-87 MG [25] = test: Induction of apoptosis in human U-87 MG cells assessed as viable cells at 0.01 uM measured upto 24 hrs by Annexin V-FITC/PI staining based flow cytometry analysis (reference value: 98.4%); format: functional, U-87MG ATCC; settings: read-out: Activity
[26] = Toxicity in BALB/c mouse implanted with human U-87 MG cells assessed as spleen damage at 5 mg/kg, ip administered once daily for 15 days by H and E staining based analysis; format: organism-based; settings: in vivo, 360 h, time 15 day
U-87 MG [27] = test: Induction of cell cycle arrest in human U-87 MG cells assessed as accumulation of cells at G0/G1 phase at 0.01 uM by propidium Iodide staining based flow cytometry analysis (reference value: 80.68%); format: functional, U-87MG ATCC
U-87 MG [28] = test: Inhibition of AKT phosphorylation in human U-87 MG cells at 0.05 uM incubated for 24 hrs by Western blot analysis; format: cell-based
U-87 MG [29] = test: Inhibition of ERK1/2 phosphorylation in human U-87 MG cells at 0.05 uM incubated for 24 hrs by Western blot analysis; format: cell-based
U-87 MG [30] = test: Induction of apoptosis in human U-87 MG cells assessed as early apoptotic cells at 0.2 uM measured upto 24 hrs by Annexin V-FITC/PI staining based flow cytometry analysis (reference value: 0.45%); format: functional, U-87MG ATCC
[31] = Selectivity ratio of IC50 for cytotoxicity against human LO2 assessed as cell viability to IC50 for antiproliferative activity against human U-87 MG assessed as cell viability; format: toxicity; settings: LO2 cells versus U-87 MG cells, read-out: Ratio IC50
U-87 MG [32] = test: Induction of cell cycle arrest in human U-87 MG cells assessed as accumulation of cells at G0/G1 phase at 0.2 uM by propidium Iodide staining based flow cytometry analysis (reference value: 80.68%); format: functional, U-87MG ATCC
U-87 MG [33] = test: Induction of apoptosis in human U-87 MG cells assessed as viable cells at 0.02 uM measured upto 24 hrs by Annexin V-FITC/PI staining based flow cytometry analysis (reference value: 98.4%); format: functional, U-87MG ATCC; settings: read-out: Activity
U-87 MG [34] = test: Induction of apoptosis in human U-87 MG cells assessed as necrotic cells at 0.01 uM measured upto 24 hrs by Annexin V-FITC/PI staining based flow cytometry analysis (reference value: 0.62%); format: functional, U-87MG ATCC
Focal adhesion kinase 1 [35] = target: T1, Focal adhesion kinase 1; test: Inhibition of FAK phosphorylation in human U-87 MG cells at 0.8 uM incubated for 24 hrs by Western blot analysis; format: cell-based
Target sequence in this assay (Q05397 2-1052 limits assumed): as above

`CNC(=O)c1ccccc1Nc1nc(Nc2ccc(N3CCN(CCOC(=O)CCCc4ccc(N(CCCl)CCCl)cc4)CC3)cc2)ncc1C(F)(F)F` showed an Activity (U-87 MG [1]) of 1.81%, an Activity (U-87 MG [2]) of 38.9% and an Activity (U-87 MG [3]) of 4.8%. For the same molecule, the Activity (U-87 MG [4]) was 43.61%, the viability at 2 µM (U-87 MG [5]) was 44.2% and the Activity [6] was “Non-toxic”. The Activity [7] was “Non-toxic”, the Activity (U-87 MG [8]) was 25.9% and the Peff [9] was 0.002 10^-6 cm/s. For the same molecule, the IC50 (U-87 MG [10]) was 15 nM, the Activity [11] was “Non-toxic” and the “inhibition (INH)” value (U-87 MG [12]) was 100%. For the same molecule, the Activity (U-87 MG [13]) was 2.16%, the IC50 (Focal adhesion kinase 1 [14]) was 0.815 nM and the Activity [15] was “Non-toxic”. For the same molecule, the Activity (U-87 MG [16]) was 46.5%, the selectivity ratio [17] was greater than 40 and the Activity (U-87 MG [18]) was 16.53%. It also gave an inhibition at 0.005 µM (U-87 MG [19]) of 73%, an inhibition (Focal adhesion kinase 1 [20]) of 98.6% and an inhibition in vivo at 25 mg/kg (U-87 MG [21]) of 82.5%. For the same molecule, the logD [22] was 6.06, the Activity (U-87 MG [23]) was 16.42% and the Activity (U-87 MG [24]) was 11.6. The viability at 0.01 µM (U-87 MG [25]) was 74.8%, the Activity [26] was “Non-toxic” and the Activity (U-87 MG [27]) was 69.64%. For the same molecule, the inhibition (U-87 MG [28]) was “Active”, the inhibition (U-87 MG [29]) was “Active” and the Activity (U-87 MG [30]) was 28.3%. The selectivity ratio [31] was greater than 40, the Activity (U-87 MG [32]) was 44.98% and the viability at 0.02 µM (U-87 MG [33]) was 63.8%. For the same molecule, the Activity (U-87 MG [34]) was 4.83% and the inhibition (Focal adhesion kinase 1 [35]) was 100%.
